Article PMC8775867, “The Systems of Naringenin with Solubilizers Expand Its Capability to Prevent Neurodegenerative Diseases” (International Journal of Molecular Sciences, 2022)
≈ marks a conversion by molar mass, not a printed value.

Target: T1, tyrosinase
T1 construct: gene PPO3
Assay: L-DOPA oxidation, absorbance […] nm
Assay type: biochemical
Details: L-DOPA substrate, phosphate buffer pH 6.8, room temperature

SMILES | IC50 [µg/mL] | IC50 (NAR in DMSO) [µg/mL]
O=C(O)CCCCCCCC(=O)O [azelaic acid] | 5883 ± 23 (≈ 31.3 mM) | –
O=C1C[C@@H](c2ccc(O)cc2)Oc2cc(O)cc(O)c21 [naringenin] | – | 4615 ± 89 (≈ 17 mM)
